Experimental findings from patent publication US9944646B2, “Bicyclic azaheterocyclobenzylamines as PI3K inhibitors” (Incyte Corporation, priority 2012, dated 2018) are described below.

Counter-ions that a name gives are not always drawn.

Sequence of PI3Kδ (O00329 whole entry): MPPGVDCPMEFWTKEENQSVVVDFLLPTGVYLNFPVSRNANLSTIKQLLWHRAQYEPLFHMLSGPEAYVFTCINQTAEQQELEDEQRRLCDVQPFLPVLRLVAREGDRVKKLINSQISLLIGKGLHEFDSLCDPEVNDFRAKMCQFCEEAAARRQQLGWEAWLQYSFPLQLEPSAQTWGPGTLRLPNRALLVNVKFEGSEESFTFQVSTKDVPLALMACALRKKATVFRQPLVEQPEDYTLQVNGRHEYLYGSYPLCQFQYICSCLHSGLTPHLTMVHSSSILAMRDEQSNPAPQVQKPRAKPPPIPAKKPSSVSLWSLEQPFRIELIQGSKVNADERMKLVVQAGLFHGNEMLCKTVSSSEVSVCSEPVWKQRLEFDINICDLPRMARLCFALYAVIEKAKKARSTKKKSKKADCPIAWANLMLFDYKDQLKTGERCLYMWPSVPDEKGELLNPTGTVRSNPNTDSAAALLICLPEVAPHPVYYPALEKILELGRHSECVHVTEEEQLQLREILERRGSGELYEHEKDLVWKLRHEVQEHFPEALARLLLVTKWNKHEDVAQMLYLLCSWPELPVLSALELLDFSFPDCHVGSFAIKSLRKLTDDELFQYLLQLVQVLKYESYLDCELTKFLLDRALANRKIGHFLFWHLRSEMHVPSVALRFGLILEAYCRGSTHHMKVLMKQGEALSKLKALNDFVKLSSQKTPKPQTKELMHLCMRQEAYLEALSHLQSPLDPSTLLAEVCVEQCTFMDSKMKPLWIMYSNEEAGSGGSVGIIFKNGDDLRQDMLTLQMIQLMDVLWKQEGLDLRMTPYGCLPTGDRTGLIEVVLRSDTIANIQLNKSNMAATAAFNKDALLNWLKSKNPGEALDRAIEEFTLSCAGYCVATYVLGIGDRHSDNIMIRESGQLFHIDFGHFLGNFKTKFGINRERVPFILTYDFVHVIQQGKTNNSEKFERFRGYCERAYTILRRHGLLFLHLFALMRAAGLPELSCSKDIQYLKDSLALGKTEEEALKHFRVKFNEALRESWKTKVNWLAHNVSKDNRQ
Sequence of PI3Kδ (P27986 whole entry partner): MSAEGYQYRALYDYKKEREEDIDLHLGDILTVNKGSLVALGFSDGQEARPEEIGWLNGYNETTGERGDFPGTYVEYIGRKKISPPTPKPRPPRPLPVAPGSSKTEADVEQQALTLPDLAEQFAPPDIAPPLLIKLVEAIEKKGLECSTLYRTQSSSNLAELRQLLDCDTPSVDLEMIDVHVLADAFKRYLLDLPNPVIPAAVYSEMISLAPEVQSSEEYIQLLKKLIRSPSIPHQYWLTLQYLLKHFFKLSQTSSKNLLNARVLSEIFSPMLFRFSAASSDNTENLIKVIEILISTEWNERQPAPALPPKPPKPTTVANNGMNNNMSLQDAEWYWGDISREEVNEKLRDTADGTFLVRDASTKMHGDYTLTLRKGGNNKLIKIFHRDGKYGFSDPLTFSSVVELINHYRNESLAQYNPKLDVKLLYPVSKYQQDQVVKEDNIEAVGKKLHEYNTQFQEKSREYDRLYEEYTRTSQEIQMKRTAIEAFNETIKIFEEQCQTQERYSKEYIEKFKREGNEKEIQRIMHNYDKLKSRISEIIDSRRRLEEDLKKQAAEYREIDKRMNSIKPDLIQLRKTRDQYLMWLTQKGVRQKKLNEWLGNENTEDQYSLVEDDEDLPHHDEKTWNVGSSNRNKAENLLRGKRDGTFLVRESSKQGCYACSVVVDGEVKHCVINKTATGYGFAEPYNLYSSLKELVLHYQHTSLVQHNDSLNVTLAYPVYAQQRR

For the assay, the target named is PI3Kδ (Homo sapiens (Human), UniProt O00329). Description: PI3K Enzyme Assay (Example A2), [γ-33P]ATP filter plate. It counts as biochemical. The method, then:
Example A2: PI3K Enzyme Assay
Lipid kinase substrate, phosphoinositol-4,5-bisphosphate (PIP2), are purchased from Echelon Biosciences (Salt Lake City, Utah). PI3K isoforms α, β, δ and γ are purchased from Millipore (Bedford, Mass.). ATP, MgCl2, DTT, EDTA, MOPS and CHAPS are purchased from Sigma-Aldrich (St. Louis, Mo.).
The kinase reaction are conducted in clear-bottom 96-well plate from Thermo Fisher Scientific in a final volume of 24 μL. Inhibitors are first diluted serially in DMSO and added to the plate wells before the addition of other reaction components. The final concentration of DMSO in the assay is 0.5%. The PI3K assays are carried out at room temperature in 20 mM MOPS, pH 6.7, 10 mM MgCl2, 5 mM DTT and CHAPS 0.03%. The reaction mixture is prepared containing 50 µM PIP2, kinase and varying concentration of inhibitors. Reactions are initiated by the addition of ATP containing 2.2 μCi [γ-^33P]ATP to a final concentration of 1000 μM. The final concentration of PI3K isoforms α, β, δ and γ in the assay were 1.3, 9.4, 2.9 and 10.8 nM, respectively. Reactions are incubated for 180 minutes and terminated by the addition of 100 μL of 1 M potassium phosphate pH 8.0, 30 mM EDTA quench buffer. A 100 μL aliquot of the reaction solution are then transferred to 96-well Millipore MultiScreen IP […] PVDF filter plate (The filter plate is prewetted with 200 μL 100% ethanol, distilled water, and 1 M potassium phosphate pH 8.0, respectively). The filter plate is aspirated on a Millipore Manifold under vacuum and washed with 18×200 μL wash buffer containing 1 M potassium phosphate pH 8.0 and 1 mM ATP. After drying by aspiration and blotting, the plate is air dried in an incubator at 37° C. overnight. Packard TopCount adapter (Millipore) is then attached to the plate followed with addition of 120 μL Microscint 20 scintillation cocktail (Perkin Elmer) in each well. After the plate sealing, the radioactivity of the product is determined by scintillation counting on Topcount (Perkin-Elmer). IC50 determination is performed by fitting the curve of percent control activity versus the log of the inhibitor concentration using the GraphPad Prism 3.0 software.
In turn, `Cc1nn(C(C)c2cc(Cl)c(F)c3c2O[C@@H](C)CN(C2CC(C(N)=O)C2)C3)c2ncnc(N)c12` (stereo partly shown) [Example 43] returned an IC50 of at most 100 nM.

Compound `Cc1nn(C(C)c2cc(Cl)c(C#N)c3c2OC(C)CN(C2CN(CC(N)=O)C2)C3)c2ncnc(N)c12` (single isomer, unassigned) [Example 51, 2-{3-[9-[1-(4-Amino-3-methyl-1H-pyrazolo[3,4-d]pyrimidin-1-yl)ethyl]-7-chloro-6-cyano-2-methyl-2,3-dihydro-1,4-benzoxazepin-4(5H)-yl]azetidin-1-yl}acetamide] yielded an IC50 of at most 100 nM.

Take `CC(=O)NC1CC(N2Cc3c(C#N)c(Cl)cc(C(C)n4nc(C)c5c(N)ncnc54)c3OC(C)C2)C1` (single isomer, unassigned) [Example 68, N-{3-[9-[1-(4-Amino-3-methyl-1H-pyrazolo[3,4-d]pyrimidin-1-yl)ethyl]-7-chloro-6-cyano-2-methyl-2,3-dihydro-1,4-benzoxazepin-4(5H)-yl]cyclobutyl}acetamide]: the IC50 is at most 100 nM.

Take `CCOC(=O)N1CC(N2Cc3c(C#N)c(Cl)cc(C(C)n4nc(C)c5c(N)ncnc54)c3OC(C)C2)C1` (single isomer, unassigned) [Example 100, ethyl 3-[9-[1-(4-amino-3-methyl-1H-pyrazolo[3,4-d]pyrimidin-1-yl)ethyl]-7-chloro-6-cyano-2-methyl-2,3-dihydro-1,4-benzoxazepin-4(5H)-yl]azetidine-1-carboxylate]: the IC50 was at most 100 nM.

`CC(=O)NC1CC(N2Cc3c(C#N)c(Cl)cc(C(C)n4nc(C)c5c(N)ncnc54)c3OC(C)C2)C1` (single isomer, unassigned) [Example 67, N-{3-[9-[1-(4-Amino-3-methyl-1H-pyrazolo[3,4-d]pyrimidin-1-yl)ethyl]-7-chloro-6-cyano-2-methyl-2,3-dihydro-1,4-benzoxazepin-4(5H)-yl]cyclobutyl}acetamide] returned a half-inhibitory concentration (IC50) of at most 100 nM.

`CC(=O)N1CC(N2CCOc3c(C(C)n4nc(C)c5c(N)ncnc54)cc(Cl)c(C#N)c3C2)C1` (stereo not shown) [Example 46, 4-(1-Acetylazetidin-3-yl)-9-[1-(4-amino-3-methyl-1H-pyrazolo[3,4-d]pyrimidin-1-yl)ethyl]-7-chloro-2,3,4,5-tetrahydro-1,4-benzoxazepine-6-carbonitrile]: the IC50 was at most 100 nM.

For `CCC1CN(CCO)Cc2c(C#N)c(Cl)cc(C(C)n3nc(C)c4c(N)ncnc43)c2O1` (single isomer, unassigned) [Example 70, 9-[1-(4-Amino-3-methyl-1H-pyrazolo[3,4-d]pyrimidin-1-yl)ethyl]-7-chloro-2-ethyl-4-(2-hydroxyethyl)-2,3,4,5-tetrahydro-1,4-benzoxazepine-6-carbonitrile], the half-inhibitory concentration (IC50) was at most 100 nM.

Take `Cc1nn(C(C)c2cc(Cl)c(F)c3c2OC[C@H](C)N(S(C)(=O)=O)C3)c2ncnc(N)c12` (single isomer, unassigned) [Example 36]: the IC50 lay in the range of 500 to 1000 nM.

For the compound `Cc1nn(C(C)c2cc(Cl)c(F)c3c2OCCN(C2CN(C(=O)N(C)C)C2)C3)c2ncnc(N)c12` (stereo not shown) [Example 73, 3-[9-[1-(4-amino-3-methyl-1H-pyrazolo[3,4-d]pyrimidin-1-yl)ethyl]-7-chloro-6-fluoro-2,3-dihydro-1,4-benzoxazepin-4(5H)-yl]-N,N-dimethylazetidine-1-carboxamide], the 50% inhibitory concentration (IC50) is at most 100 nM.

In turn, `Cc1nn(C(C)c2cc(Cl)c(C#N)c3c2OC(C)CN(C2CN(CCO)C2)C3)c2ncnc(N)c12` (single isomer, unassigned) [Example 104, 9-[1-(4-amino-3-methyl-1H-pyrazolo[3,4-d]pyrimidin-1-yl)ethyl]-7-chloro-4-[1-(2-hydroxyethyl)azetidin-3-yl]-2-methyl-2,3,4,5-tetrahydro-1,4-benzoxazepine-6-carbonitrile] returned an IC50 of at most 100 nM.

Compound `CCNC(=O)N1CC(N2Cc3c(C#N)c(Cl)cc(C(C)n4nc(C)c5c(N)ncnc54)c3OC(C)C2)C1` (single isomer, unassigned) [Example 98, 3-[9-[1-(4-amino-3-methyl-1H-pyrazolo[3,4-d]pyrimidin-1-yl)ethyl]-7-chloro-6-cyano-2-methyl-2,3-dihydro-1,4-benzoxazepin-4(5H)-yl]-N-ethylazetidine-1-carboxamide] showed an IC50 of at most 100 nM.

Compound `CC(=O)N1CC(N2CCOc3c(C(C)n4nc(C)c5c(N)ncnc54)cc(Cl)c(F)c3C2)C1` (stereo not shown) [Example 34, 1-{1-[4-(1-Acetylazetidin-3-yl)-7-chloro-6-fluoro-2,3,4,5-tetrahydro-1,4-benzoxazepin-9-yl]ethyl}-3-methyl-1H-pyrazolo[3,4-d]pyrimidin-4-amine] showed an IC50 of at most 100 nM.

As for `Cc1nn(C(C)c2cc(Cl)c(C#N)c3c2OC(C)CN(C2CN(CC(C)(C)O)C2)C3)c2ncnc(N)c12` (single isomer, unassigned) [Example 55, 9-[1-(4-Amino-3-methyl-1H-pyrazolo[3,4-d]pyrimidin-1-yl)ethyl]-7-chloro-4-[1-(2-hydroxy-2-methylpropyl)azetidin-3-yl]-2-methyl-2,3,4,5-tetrahydro-1,4-benzoxazepine-6-carbonitrile], the IC50 is at most 100 nM.

Regarding `Cc1nn(C(C)c2cc(Cl)c(C#N)c3c2OC(C)CN(CC#N)C3)c2ncnc(N)c12` (single isomer, unassigned) [Example 107, 9-[1-(4-amino-3-methyl-1H-pyrazolo[3,4-d]pyrimidin-1-yl)ethyl]-7-chloro-4-(cyanomethyl)-2-methyl-2,3,4,5-tetrahydro-1,4-benzoxazepine-6-carbonitrile], the IC50 was at most 100 nM.

In the case of `Cc1nn(C(C)c2cc(Cl)c(C#N)c3c2OC(C)CN(CCO)C3)c2ncnc(N)c12` (single isomer, unassigned) [Example 61, 9-[1-(4-Amino-3-methyl-1H-pyrazolo[3,4-d]pyrimidin-1-yl)ethyl]-7-chloro-4-(2-hydroxyethyl)-2-methyl-2,3,4,5-tetrahydro-1,4-benzoxazepine-6-carbonitrile], the IC50 is above 800 nM.

The compound `Cc1nn([C@@H](C)c2cc(Cl)c(F)c3c2O[C@@H](C)CN(C2CN(C[C@@H](C)O)C2)C3)c2ncnc(N)c12` [Example 86, (2R)-1-{3-[(2S)-9-[(1S)-1-(4-amino-3-methyl-1H-pyrazolo[3,4-d]pyrimidin-1-yl)ethyl]-7-chloro-6-fluoro-2-methyl-2,3-dihydro-1,4-benzoxazepin-4(5H)-yl]azetidin-1-yl}propan-2-ol] showed a concentration for half-maximal inhibition (IC50) of at most 100 nM.

With `Cc1nn(C(C)c2cc(Cl)c(F)c3c2O[C@@H](C)CN(C2CC(C(=O)O)C2)C3)c2ncnc(N)c12` (stereo partly shown) [Example 41, 3-[9-[1-(4-Amino-3-methyl-1H-pyrazolo[3,4-d]pyrimidin-1-yl)ethyl]-7-chloro-6-fluoro-2-methyl-2,3-dihydro-1,4-benzoxazepin-4(5H)-yl]cyclobutanecarboxylic acid trifluoroacetate], the IC50 was at most 100 nM.

Compound `Cc1nn(C(C)c2cc(Cl)c(F)c3c2OC(C)CN(C2CN(C(N)=O)C2)C3)c2ncnc(N)c12` (single isomer, unassigned) [Example 83, 3-[9-[1-(4-amino-3-methyl-1H-pyrazolo[3,4-d]pyrimidin-1-yl)ethyl]-7-chloro-6-fluoro-2-methyl-2,3-dihydro-1,4-benzoxazepin-4(5H)-yl]azetidine-1-carboxamide] showed an IC50 of at most 100 nM.

For `Cc1nn(C(C)c2cc(Cl)c(F)c3c2O[C@@H](C)CN(C2CN(CC(N)=O)C2)C3)c2ncnc(N)c12` (single isomer, unassigned) [Example 87], the IC50 lay in the range of 100 to 500 nM.

`Cc1nn(C(C)c2cc(Cl)c(C#N)c3c2OCCN(CCO)C3)c2ncnc(N)c12` (stereo not shown) [Example 58, 9-[1-(4-Amino-3-methyl-1H-pyrazolo[3,4-d]pyrimidin-1-yl)ethyl]-7-chloro-4-(2-hydroxyethyl)-2,3,4,5-tetrahydro-1,4-benzoxazepine-6-carbonitrile] displayed an IC50 of at most 100 nM.

`Cc1nn([C@@H](C)c2cc(Cl)c(F)c3c2O[C@@H](C)CN(C2CN(C[C@H](C)O)C2)C3)c2ncnc(N)c12` [Example 85, (2S)-1-{3-[(2S)-9-[(1S)-1-(4-amino-3-methyl-1H-pyrazolo[3,4-d]pyrimidin-l-yl)ethyl]-7-chloro-6-fluoro-2-methyl-2,3-dihydro-1,4-benzoxazepin-4(5H)-yl]azetidin-1-yl}propan-2-ol] displayed an IC50 of at most 100 nM.

Consider `Cc1nn(C(C)c2cc(Cl)c(C#N)c3c2OC(C)CN(C2CN(S(=O)(=O)N(C)C)C2)C3)c2ncnc(N)c12` (single isomer, unassigned) [Example 106, 3-[9-[1-(4-amino-3-methyl-1H-pyrazolo[3,4-d]pyrimidin-1-yl)ethyl]-7-chloro-6-cyano-2-methyl-2,3-dihydro-1,4-benzoxazepin-4(5H)-yl]-N,N-dimethylazetidine-1-sulfonamide], for which the IC50 is at most 100 nM.
